Reference: PMC7902330, “Pharmacokinetic study of traditional Japanese Kampo medicine shimotsuto used to treat gynecological diseases in rats” (Journal of Natural Medicines, 2021)
Like-named read-outs stand apart in the source and are kept apart here.

Columns and labels:
human TRPV1 = molecular target: T1, human TRPV1 (Homo sapiens, UniProt Q8NER1); experiment: Ca2+ influx assay for TRP channel agonistic activity in T-REx-293 cells; type: cell-based; conditions: 10 µmol/L test ingredient, positive control 2 µmol/L capsaicin, read-out: % Activation compared to positive control, TRPV1
T1 construct: The full length of each of human transient receptor potential ankyrin 1 (TRPA1), transient receptor potential cation channel subfamily V member 1 (TRPV1); expressed in transfected cells
T1 sequence (Q8NER1 whole entry): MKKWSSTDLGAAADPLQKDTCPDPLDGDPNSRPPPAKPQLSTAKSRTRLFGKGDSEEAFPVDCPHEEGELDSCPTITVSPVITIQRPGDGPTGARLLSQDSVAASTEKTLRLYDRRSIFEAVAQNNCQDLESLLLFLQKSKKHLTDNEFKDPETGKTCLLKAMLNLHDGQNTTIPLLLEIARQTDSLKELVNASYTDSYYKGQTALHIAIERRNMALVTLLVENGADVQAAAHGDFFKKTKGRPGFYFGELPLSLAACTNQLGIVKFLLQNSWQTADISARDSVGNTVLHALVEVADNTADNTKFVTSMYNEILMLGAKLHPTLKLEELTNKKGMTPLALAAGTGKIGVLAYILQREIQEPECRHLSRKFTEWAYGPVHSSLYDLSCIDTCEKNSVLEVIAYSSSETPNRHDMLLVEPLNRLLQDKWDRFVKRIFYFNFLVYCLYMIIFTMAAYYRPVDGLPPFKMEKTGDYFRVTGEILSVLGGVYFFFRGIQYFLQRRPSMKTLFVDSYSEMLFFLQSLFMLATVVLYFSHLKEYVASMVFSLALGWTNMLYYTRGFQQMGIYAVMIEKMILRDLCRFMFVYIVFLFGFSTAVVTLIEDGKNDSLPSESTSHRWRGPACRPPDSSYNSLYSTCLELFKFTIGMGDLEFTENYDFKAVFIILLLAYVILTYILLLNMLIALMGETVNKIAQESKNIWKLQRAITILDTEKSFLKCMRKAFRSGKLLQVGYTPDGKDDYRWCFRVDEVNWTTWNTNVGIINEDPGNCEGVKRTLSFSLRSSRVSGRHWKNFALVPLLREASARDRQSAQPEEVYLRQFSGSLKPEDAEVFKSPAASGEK
Description: (§1) The full length of each of human transient receptor potential ankyrin 1 (TRPA1), transient receptor potential cation channel subfamily V member 1 (TRPV1), transient receptor potential cation channel subfamily V member 4 (TRPV4), and transient receptor potential cation channel subfamily M member 8 (TRPM8) coding region was introduced into a pcDNA4/TO vector (Thermo Fisher Scientific, Waltham, MA, USA) and transfected into T-REx-293 cells (Thermo Fisher Scientific) to obtain stable cell lines expressing human TRPA1, TRPV1, TRPV4, and TRPM8. Next, the cells were cultured in Dulbecco’s Modified Eagle Medium containing 10% fetal bovine serum (FBS), 4 mM L-glutamine, and penicillin/streptomycin.
(§2) First, cells were suspended in culture medium with 1 µg/mL of tetracycline and seeded on a poly-D-lysine-coated 96-well plate at a density of 2.5 × 10^4 cells/well overnight. Next, the cells were used for Ca^2+ influx assay, as described previously with minor modifications, using a FLIPR Calcium 5 Assay Kit (Molecular Devices, San Jose, CA, USA). Briefly, cells were incubated in 80 µL of a Ca^2+-chelating dye dissolved in assay buffer at pH 7.4 (Hanks’ Balanced Salt Solution containing 20 mmol/L of 4-(2-hydroxyethyl)-1-piperazineethanesulfonic acid [HEPES]) for 30 min at room temperature. Next, the plates were assayed in a FlexStation 3 microplate reader (Molecular Devices). The fluorescence intensity was traced entirely for 80 s, and the fluorescence baseline was measured 20 s before application of 20 µL of the test compound (final concentration = 10 µmol/L). The response was expressed as percentage activation as follows:
(§3) Relative fluorescence units (RFU) (% activation) = ([RFUmax − RFUbaseline]/RFUbaseline) × 100
(§4) The activity of each test compound against TRPA1, TRPV1, TRPV4, and TRPM8 was represented as the relative enhancement of the Ca^2+ influx of each positive control as follows: 20 µmol/L of allyl isothiocyanate (TRPA1 agonist), 2 µmol/L of capsaicin (TRPV1 agonist), 4 µmol/L of GSK1016790A (TRPV4 agonist), and 20 µmol/L of icilin (TRPM8 agonist). The dose–response curve was fitted to the sigmoidal dose–response equation (Top: maximum response of each compound), and EC50 was calculated using GraphPad prism 7 software (GraphPad, San Diego, CA, USA).
(§5) Calcium ion influx into TRPA1-, TRPV1-, TRPV4-, or TRPM8-expressing T-REx-293 cells was measured to evaluate the agonistic effect of shimotsuto ingredients on TRP channels. The action of 10 µmol/L of each test ingredient was represented as the relative enhancement of the Ca^2+ influx of each positive control, indicated as follows: 20 µmol/L each of allyl isothiocyanate (TRPA1 agonist), 2 µmol/L capsaicin (TRPV1 agonist), 4 µmol/L GSK1016790A (TRPV4 agonist), and 20 µmol/L icilin (TRPM8 agonist). Dose–response tests of shimotsuto ingredients against TRPA1 were performed to calculate EC50.

human TRPA1 = molecular target: T2, human TRPA1 (Homo sapiens, UniProt O75762); experiment: as above; type: cell-based; conditions: for activation at 10 µM: T-REx-293, 10 µmol/L test ingredient, positive control 20 µmol/L allyl isothiocyanate, read-out: % Activation compared to positive control, TRPA1
T2 construct: The full length of each of human transient receptor potential ankyrin 1 (TRPA1); expressed in transfected cells
T2 sequence (O75762 whole entry): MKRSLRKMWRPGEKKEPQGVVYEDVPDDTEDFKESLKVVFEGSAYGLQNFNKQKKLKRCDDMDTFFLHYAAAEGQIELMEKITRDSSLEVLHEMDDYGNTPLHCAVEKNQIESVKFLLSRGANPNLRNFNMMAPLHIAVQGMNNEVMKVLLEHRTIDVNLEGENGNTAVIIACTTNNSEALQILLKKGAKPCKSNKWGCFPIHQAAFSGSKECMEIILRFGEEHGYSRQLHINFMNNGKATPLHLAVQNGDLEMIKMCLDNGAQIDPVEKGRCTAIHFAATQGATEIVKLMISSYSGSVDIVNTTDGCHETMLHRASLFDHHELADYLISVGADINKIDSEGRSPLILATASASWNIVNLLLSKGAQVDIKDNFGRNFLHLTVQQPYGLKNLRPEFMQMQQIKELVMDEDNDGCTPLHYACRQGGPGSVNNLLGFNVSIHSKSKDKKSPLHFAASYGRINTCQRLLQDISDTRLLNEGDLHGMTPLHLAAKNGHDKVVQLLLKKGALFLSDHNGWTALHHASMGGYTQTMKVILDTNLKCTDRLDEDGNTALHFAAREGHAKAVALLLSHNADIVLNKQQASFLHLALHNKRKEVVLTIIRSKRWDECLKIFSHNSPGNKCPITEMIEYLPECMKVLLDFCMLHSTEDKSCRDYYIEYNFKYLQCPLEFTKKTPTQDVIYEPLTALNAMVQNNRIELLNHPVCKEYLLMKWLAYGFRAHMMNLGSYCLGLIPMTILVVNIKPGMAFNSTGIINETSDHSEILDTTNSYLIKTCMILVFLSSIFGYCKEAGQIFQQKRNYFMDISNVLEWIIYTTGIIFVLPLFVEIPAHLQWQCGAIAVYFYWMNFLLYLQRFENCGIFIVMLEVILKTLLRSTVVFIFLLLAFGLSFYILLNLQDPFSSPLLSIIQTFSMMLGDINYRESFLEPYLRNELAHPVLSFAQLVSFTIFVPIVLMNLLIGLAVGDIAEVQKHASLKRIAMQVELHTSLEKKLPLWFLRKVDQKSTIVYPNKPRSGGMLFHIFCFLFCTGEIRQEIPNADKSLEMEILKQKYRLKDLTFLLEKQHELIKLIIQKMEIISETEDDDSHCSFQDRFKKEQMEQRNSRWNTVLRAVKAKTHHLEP
Description: as §1, §2, §3, §4, §5

human TRPM8 = molecular target: T3, human TRPM8 (Homo sapiens, UniProt Q7Z2W7); experiment: as above; type: cell-based; conditions: 10 µmol/L test ingredient, positive control 20 µmol/L icilin, read-out: % Activation compared to positive control, TRPM8
T3 construct: The full length of each of human transient receptor potential ankyrin 1 (TRPA1); expressed in transfected cells
T3 sequence (Q7Z2W7 whole entry): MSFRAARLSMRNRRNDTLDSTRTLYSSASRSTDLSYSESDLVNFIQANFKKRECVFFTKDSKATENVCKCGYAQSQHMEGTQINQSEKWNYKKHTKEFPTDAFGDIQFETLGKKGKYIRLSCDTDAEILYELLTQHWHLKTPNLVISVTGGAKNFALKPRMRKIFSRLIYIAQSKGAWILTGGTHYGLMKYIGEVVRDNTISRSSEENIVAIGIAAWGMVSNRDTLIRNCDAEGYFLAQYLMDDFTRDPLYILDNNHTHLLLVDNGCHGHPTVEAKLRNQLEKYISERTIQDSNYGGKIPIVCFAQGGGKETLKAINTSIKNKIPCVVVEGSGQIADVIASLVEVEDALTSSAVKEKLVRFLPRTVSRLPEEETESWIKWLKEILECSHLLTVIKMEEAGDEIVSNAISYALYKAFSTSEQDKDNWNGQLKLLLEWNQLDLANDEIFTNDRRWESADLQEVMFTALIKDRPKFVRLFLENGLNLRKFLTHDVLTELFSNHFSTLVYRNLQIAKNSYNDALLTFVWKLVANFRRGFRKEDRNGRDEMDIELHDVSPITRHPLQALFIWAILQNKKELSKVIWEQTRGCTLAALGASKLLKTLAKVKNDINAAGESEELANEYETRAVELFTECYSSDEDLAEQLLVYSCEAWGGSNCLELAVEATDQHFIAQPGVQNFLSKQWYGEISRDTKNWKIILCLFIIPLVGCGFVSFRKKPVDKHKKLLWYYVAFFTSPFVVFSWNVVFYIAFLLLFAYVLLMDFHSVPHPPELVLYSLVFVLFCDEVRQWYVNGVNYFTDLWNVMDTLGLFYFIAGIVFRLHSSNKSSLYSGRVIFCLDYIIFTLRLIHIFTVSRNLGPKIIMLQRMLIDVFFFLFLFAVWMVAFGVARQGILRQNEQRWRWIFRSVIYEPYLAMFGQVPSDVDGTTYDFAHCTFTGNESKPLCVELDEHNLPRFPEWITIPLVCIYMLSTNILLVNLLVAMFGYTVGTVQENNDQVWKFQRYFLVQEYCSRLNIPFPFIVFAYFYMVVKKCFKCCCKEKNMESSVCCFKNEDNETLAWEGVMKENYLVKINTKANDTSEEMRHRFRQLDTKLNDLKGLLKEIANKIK
Description: as §1, §2, §3, §4, §5

human TRPV4 = molecular target: T4, human TRPV4 (Homo sapiens, UniProt Q9HBA0); experiment: as above; type: cell-based; conditions: 10 µmol/L test ingredient, positive control 4 µmol/L GSK1016790A, read-out: % Activation compared to positive control, TRPV4
T4 construct: The full length of each of human transient receptor potential ankyrin 1 (TRPA1); expressed in transfected cells
T4 sequence (Q9HBA0 whole entry): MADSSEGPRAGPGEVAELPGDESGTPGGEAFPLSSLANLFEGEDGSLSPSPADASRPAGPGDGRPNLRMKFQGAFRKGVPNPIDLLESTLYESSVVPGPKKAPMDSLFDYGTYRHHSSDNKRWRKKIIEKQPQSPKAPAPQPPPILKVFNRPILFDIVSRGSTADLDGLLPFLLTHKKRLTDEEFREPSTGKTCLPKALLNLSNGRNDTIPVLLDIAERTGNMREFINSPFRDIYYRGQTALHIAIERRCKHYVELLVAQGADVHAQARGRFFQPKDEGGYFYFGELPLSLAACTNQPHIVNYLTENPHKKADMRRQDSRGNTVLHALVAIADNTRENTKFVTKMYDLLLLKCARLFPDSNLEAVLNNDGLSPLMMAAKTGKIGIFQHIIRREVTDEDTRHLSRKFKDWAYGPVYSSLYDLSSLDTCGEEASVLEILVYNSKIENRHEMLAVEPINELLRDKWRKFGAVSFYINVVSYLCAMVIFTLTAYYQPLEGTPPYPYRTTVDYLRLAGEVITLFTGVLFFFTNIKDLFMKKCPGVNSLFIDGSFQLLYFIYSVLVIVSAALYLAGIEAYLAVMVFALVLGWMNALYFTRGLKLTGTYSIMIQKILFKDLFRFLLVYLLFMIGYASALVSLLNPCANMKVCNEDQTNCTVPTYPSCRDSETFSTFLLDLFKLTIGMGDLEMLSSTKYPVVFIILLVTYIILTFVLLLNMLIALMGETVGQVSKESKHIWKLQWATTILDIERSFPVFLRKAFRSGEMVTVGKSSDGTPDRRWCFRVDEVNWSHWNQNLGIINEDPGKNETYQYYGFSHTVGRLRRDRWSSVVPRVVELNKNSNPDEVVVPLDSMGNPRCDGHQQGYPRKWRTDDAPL
Description: as §1, §2, §3, §4, §5

[1] = Plasma levels of catalpol in humans after goshajinkigan administration (unpublished data); type: in vivo, human; conditions: after goshajinkigan (including Rehmanniae Radix) administration
[2] = cited from earlier work
[3] = Pharmacokinetics of ingredients in rat plasma after oral administration of shimotsuto (targeted LC–MS/MS); type: in vivo
Description: The plasma levels of nine ingredients were quantified using quantitative (targeted) analysis. Among them, seven ingredients (catalpol, paeoniflorin, albiflorin, senkyunolide A, butylphthalide, ferulic acid, and ligustilide) are candidate active ingredients in shimotsuto (Table 1). Two ingredients (bergapten and 8-debenzoylpaeoniflorin) are shimotsuto ingredients which were detected and identified in shimotsuto-treated rat plasma using nontargeted LC–HRMS analysis. The nine ingredients were quantified by collecting plasma samples at 0–24 h after shimotsuto administration, pretreating with the following procedures, and then analyzing by targeted LC–MS/MS using selected reaction-monitoring mode. The LC–MS/MS system was composed of a triple quadruple MS (TripleQuad6500; SCIEX, Framingham, MA, USA) and an Agilent 1290 Infinity LC system (Agilent Technologies, Santa Clara, CA, USA). For highly sensitive and selective quantitative (targeted) analysis of each compound, we preliminarily examined optimal pretreatment and analytical LC–MS/MS methods (e.g., MS parameters and LC conditions).
For quantification of catalpol, paeoniflorin, albiflorin, ferulic acid, and senkyunolide A in plasma, 100 µL of plasma sample was mixed with 20 µL of methanol (or working solution) and 20 µL of internal standard (niflumic acid or swertiamarin) and pretreated by deproteinization using 500 µL of acetonitrile. […] Finally, the dried residue was dissolved in 60 µL of the specific HPLC mobile phase used for analysis and then a 10 μL aliquot was injected into the LC–MS/MS system.
For quantification of ligustilide and butylphthalide in plasma, 200 µL of plasma sample was mixed with 40 µL of methanol (or working solution) and 40 µL of internal standard (imperatorin) and centrifuged at 15000×g for 10 min at 4 °C, the whole volume of supernatant was collected and subsequently pretreated by solid-phase extraction using Oasis HLB Extraction Cartridge (Waters, Milford, MA, USA). The acetonitrile elutes were collected and then dried under a steam of nitrogen gas. Finally, the dried residue was dissolved in 70 µL of the specific HPLC mobile phase and injected 20 µL into the LC–MS/MS system.
For quantification of bergapten in plasma, 100 µL of plasma sample was mixed with 20 µL of methanol (or working solution) and 20 µL of internal standard (niflumic acid) and pretreated by solid-phase extraction using an Oasis HLB 96-well µElution plate. Next, the mixied elutes of acetonitrile and isopropyl alcohol (1:1, v/v) were collected and then dried under a steam of nitrogen gas. Finally, the dried residue was dissolved in 60 µL of the specific HPLC mobile phase and injected 10 µL into the LC–MS/MS system.
For quantification of 8-debenzoylpaeoniflorin in plasma, 100 µL of plasma sample was mixed with 20 µL of methanol (or working solution) and 20 µL of internal standard (niflumic acid) and pretreated by liquid–liquid extraction using 500 µL of ethyl acetate. […] The dried residue was dissolved in 60 µL of the specific HPLC mobile phase and injected 10 µL into the LC–MS/MS system.
In addition, pharmacokinetic parameters of the shimotsuto ingredients detected in the plasma, such as the maximum concentration (Cmax) and area under the plasma level–time curve (AUC0−last), were calculated by noncompartmental moment analysis using Phoenix WinNonlin software (Certara L.P., St. Louis, MO, USA).

[4] = design: method as in PMID 31514313; conditions: ref 18; cited from earlier work
blood viscosity = system: blood viscosity; design: method as in PMID 28299338; conditions: rat model; cited from earlier work
[5] = design: method as in PMID 8932691; conditions: cited from earlier work
[6] = system: transient receptor potential ankyrin 1 (TRPA1); design: method as in PMID 21894528; conditions: ref 15; cited from earlier work

activation at 10 µM (human TRPV1) [%]	activation at 10 µM (human TRPA1) [%]	activation at 10 µM (human TRPM8) [%]	activation at 10 µM (human TRPV4) [%]	Plasma levels in humans [1]	AUC(0-t) ([3]; rat, in vivo, po, 1 g/kg) [ng·h/mL]	Cmax ([3]; rat, in vivo, po, 1 g/kg) [ng/mL]	Tmax ([3]; rat, in vivo, po, 1 g/kg) [min]	half-life ([3]; rat, in vivo, po, 1 g/kg) [min]	Activation of TRPA1 (in words) (human TRPA1; TRP stable expression cell lines)	EC50 (human TRPA1; dose–response test, Ca2+ influx, read-out: EC50 against TRPA1) [nM]	SMILES	Pharmacological action related to improvement of blood and the circulatory system ([2]; ref 11)	Absolute bioavailability [4] [%]	Pharmacological action related to improvement of blood and the circulatory system (blood viscosity)	Cumulative biliary excretion ([5]; after oral administration of paeoniflorin, within 24 h)	Bioavailability ([5]; in rats)	Tmax ([3]; rat plasma, oral shimotsuto 1 g/kg, from mean concentration (n = 3) per time point) [min]	Pharmacological action related to improvement of blood and the circulatory system [6]	Pharmacological action related to improvement of blood and the circulatory system ([2]; ref 8)	Pharmacological action related to improvement of blood and the circulatory system ([2]; ref 13)
0	2	3	0	quite low	2030	1360	60	38.6	–	–	OC[C@H]1O[C@@H](O[C@@H]2OC=C[C@H]3[C@H](O)[C@@H]4O[C@]4(CO)[C@@H]23)[C@H](O)[C@@H](O)[C@@H]1O [Catalpol]	Protective effect on vascular endothelial function via multiple actions such as induction of serum nitric oxide [11]	66.7	–	–	–	–	–	–	–
0	1	1	-1	–	24.2	6.34	30	163	–	–	CC12CC(O)C3CC1(OC1OC(CO)C(O)C(O)C1O)C3(COC(=O)c1ccccc1)C(=O)O2 (stereo not shown) [Albiflorin]	–	–	Reduction of blood viscosity via antithrombotic effect in rat model [12]	–	–	–	–	–	–
0	87	18	-1	–	0.916	2.83	30	–	potently activated	1300	CCC/C=C1\OC(=O)C2=C1CCC=C2 [Ligustilide]	–	–	–	–	–	–	Activation of transient receptor potential ankyrin 1 (TRPA1; which plays a role in vasodilation)	vasorelaxation	vasorelaxation and increased blood flow effects

SMILES	activation at 10 µM (human TRPV1) [%]	activation at 10 µM (human TRPA1) [%]	activation at 10 µM (human TRPM8) [%]	activation at 10 µM (human TRPV4) [%]	Plasma levels in humans [1]	AUC(0-t) ([3]; rat, in vivo, po, 1 g/kg) [ng·h/mL]	Cmax ([3]; rat, in vivo, po, 1 g/kg) [ng/mL]	Tmax ([3]; rat, in vivo, po, 1 g/kg) [min]	half-life ([3]; rat, in vivo, po, 1 g/kg) [min]	Activation of TRPA1 (in words) (human TRPA1; TRP stable expression cell lines)	EC50 (human TRPA1; dose–response test, Ca2+ influx, read-out: EC50 against TRPA1) [nM]	Pharmacological action related to improvement of blood and the circulatory system ([2]; ref 11)	Absolute bioavailability [4] [%]	Pharmacological action related to improvement of blood and the circulatory system (blood viscosity)	Cumulative biliary excretion ([5]; after oral administration of paeoniflorin, within 24 h)	Bioavailability ([5]; in rats)	Tmax ([3]; rat plasma, oral shimotsuto 1 g/kg, from mean concentration (n = 3) per time point) [min]	Pharmacological action related to improvement of blood and the circulatory system [6]	Pharmacological action related to improvement of blood and the circulatory system ([2]; ref 8)	Pharmacological action related to improvement of blood and the circulatory system ([2]; ref 13)
C[C@@]12C[C@@]3(O)O[C@@H](O1)[C@]1(COC(=O)c4ccccc4)[C@H]3C[C@@]12O[C@@H]1O[C@H](CO)[C@@H](O)[C@H](O)[C@H]1O [Paeoniflorin]	-1	1	0	0	–	83.6	36.3	–	88.8	–	–	–	–	Reduction of blood viscosity via antithrombotic effect in rat model [12]	1.3 % of the dose	low	30	–	–	–
